Source: ChEMBL document CHEMBL1154973 (Bioorg Med Chem Lett, 2010)

Legend:
Acetylcholinesterase = target: T1, Acetylcholinesterase (Rattus norvegicus, UniProt P37136); assay: Inhibition of rat brain AChE by Ellman's method
T1 sequence (P37136 whole entry): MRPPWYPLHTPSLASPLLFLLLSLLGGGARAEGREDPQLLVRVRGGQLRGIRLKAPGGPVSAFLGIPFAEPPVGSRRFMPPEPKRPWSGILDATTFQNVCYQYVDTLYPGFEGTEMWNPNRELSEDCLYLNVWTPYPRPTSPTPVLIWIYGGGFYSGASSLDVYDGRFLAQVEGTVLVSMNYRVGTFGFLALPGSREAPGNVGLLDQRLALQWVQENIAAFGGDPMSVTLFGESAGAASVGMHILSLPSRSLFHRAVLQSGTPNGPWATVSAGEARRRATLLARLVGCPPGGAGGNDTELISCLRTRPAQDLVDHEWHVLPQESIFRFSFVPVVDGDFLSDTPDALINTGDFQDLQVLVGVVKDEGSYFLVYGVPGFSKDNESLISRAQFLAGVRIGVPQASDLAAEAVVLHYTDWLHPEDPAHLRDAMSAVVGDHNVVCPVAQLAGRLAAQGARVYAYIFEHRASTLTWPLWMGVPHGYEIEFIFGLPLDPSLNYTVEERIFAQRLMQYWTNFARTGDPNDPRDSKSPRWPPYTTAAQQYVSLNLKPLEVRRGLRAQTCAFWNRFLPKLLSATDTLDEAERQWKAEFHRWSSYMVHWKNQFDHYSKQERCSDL

Butyrylcholinesterase = Butyrylcholinesterase (Rattus norvegicus, UniProt Q9JKC1); assay: Inhibition of rat plasma BChE by Ellman's method; assay type: cell-free
Butyrylcholinesterase, sequence (Q9JKC1 whole entry): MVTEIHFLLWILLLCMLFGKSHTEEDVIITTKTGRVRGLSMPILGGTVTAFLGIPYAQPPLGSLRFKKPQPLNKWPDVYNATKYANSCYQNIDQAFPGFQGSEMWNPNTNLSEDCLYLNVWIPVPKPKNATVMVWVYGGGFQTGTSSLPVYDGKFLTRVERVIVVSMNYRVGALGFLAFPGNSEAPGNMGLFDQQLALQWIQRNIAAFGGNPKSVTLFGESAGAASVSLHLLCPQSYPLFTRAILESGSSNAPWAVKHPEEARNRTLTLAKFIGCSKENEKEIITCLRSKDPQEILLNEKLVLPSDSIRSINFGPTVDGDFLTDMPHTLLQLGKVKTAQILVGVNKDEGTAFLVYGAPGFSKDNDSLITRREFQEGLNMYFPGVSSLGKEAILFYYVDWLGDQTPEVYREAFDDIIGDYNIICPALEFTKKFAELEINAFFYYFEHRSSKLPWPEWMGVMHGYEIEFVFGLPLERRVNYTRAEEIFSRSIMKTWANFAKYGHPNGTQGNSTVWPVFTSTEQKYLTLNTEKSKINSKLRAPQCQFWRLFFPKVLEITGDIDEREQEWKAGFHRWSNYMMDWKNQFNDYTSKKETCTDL

[1] = target: T2, Acetylcholinesterase and butyrylcholinesterase (AChE and BChE) (Rattus norvegicus) (UniProt P37136+Q9JKC1); assay: Selectivity ratio of IC50 for rat brain AChE to IC50 rat plasma BChE; assay type: cell-free
T2 sequence (Q9JKC1 1-597, one chain of several): as the sequence (Q9JKC1 whole entry) above

[2] = target: T2, Acetylcholinesterase and butyrylcholinesterase (AChE and BChE) (Rattus norvegicus); assay: Selectivity ratio of IC50 for rat plasma BChE to IC50 for rat brain AChE; assay type: cell-free

## CN1CC[C@@]2(C)c3cc(OC(=O)Nc4ccc(Br)cc4)ccc3N(C)[C@@H]12
Acetylcholinesterase
  IC50: 168 nM
Butyrylcholinesterase
  IC50: 14.9 nM
[1]
  Ratio IC50: 7

## CN1CC[C@@]2(C)c3cc(OC(=O)Nc4cc(Cl)cc(Cl)c4)ccc3N(C)[C@@H]12
Acetylcholinesterase
  IC50: 113 nM
Butyrylcholinesterase
  IC50: 935 nM
[2]
  Ratio IC50: 8

## CN1CC[C@@]2(C)c3cc(OC(=O)Nc4ccc(Cl)cc4)ccc3N(C)[C@@H]12
Acetylcholinesterase
  IC50: 914 nM
Butyrylcholinesterase
  IC50: 61.3 nM
[1]
  Ratio IC50: 15

## Cc1ccc(NC(=O)Oc2ccc3c(c2)[C@]2(C)CCN(C)[C@@H]2N3C)cc1Cl
Acetylcholinesterase
  IC50: 7.3 nM
Butyrylcholinesterase
  IC50: 8.5 nM

## CN1CC[C@@]2(C)c3cc(OC(=O)Nc4ccccc4)ccc3N(C)[C@@H]12 [PHENSERINE]
Acetylcholinesterase
  IC50: 11.9 nM
Butyrylcholinesterase
  IC50: 104 nM
[2]
  Ratio IC50: 10

## CN1CC[C@@]2(C)c3cc(OC(=O)Nc4cccc(Cl)c4Cl)ccc3N(C)[C@@H]12
Acetylcholinesterase
  IC50: 66.2 nM
Butyrylcholinesterase
  IC50: 517 nM
[2]
  Ratio IC50: 8

## CNC(=O)Oc1ccc2c(c1)[C@]1(C)CCN(C)[C@@H]1N2C [PHYSOSTIGMINE]
Butyrylcholinesterase
  IC50: 7.6 nM

## CN1CC[C@@]2(C)c3cc(OC(=O)Nc4cccc(Cl)c4)ccc3N(C)[C@@H]12
Acetylcholinesterase
  IC50: 38.7 nM
Butyrylcholinesterase
  IC50: 105 nM
[2]
  Ratio IC50: 3

## CN1CC[C@@]2(C)c3cc(OC(=O)Nc4cccc5ccccc45)ccc3N(C)[C@@H]12
Acetylcholinesterase
  IC50: 4.2 nM
Butyrylcholinesterase
  IC50: 14.1 nM
[2]
  Ratio IC50: 3

## COc1ccc(NC(=O)Oc2ccc3c(c2)[C@]2(C)CCN(C)[C@@H]2N3C)cc1
Acetylcholinesterase
  IC50: 29.9 nM
Butyrylcholinesterase
  IC50: 5.8 nM
[1]
  Ratio IC50: 5

## CN1CC[C@@]2(C)c3cc(OC(=O)Nc4cccc(C#N)c4)ccc3N(C)[C@@H]12
Acetylcholinesterase
  IC50: 442 nM
Butyrylcholinesterase
  IC50: 1020 nM
[2]
  Ratio IC50: 4

## Cc1c(Cl)cccc1NC(=O)Oc1ccc2c(c1)[C@]1(C)CCN(C)[C@@H]1N2C
Acetylcholinesterase
  IC50: 6.4 nM
Butyrylcholinesterase
  IC50: 113 nM
[2]
  Ratio IC50: 18

## CN1CC[C@@]2(C)c3cc(OC(=O)Nc4ccccc4Br)ccc3N(C)[C@@H]12
Acetylcholinesterase
  IC50: 66.5 nM
Butyrylcholinesterase
  IC50: 39.6 nM

## CC(C)c1cccc(C(C)C)c1NC(=O)Oc1ccc2c(c1)[C@]1(C)CCN(C)[C@@H]1N2C
Acetylcholinesterase
  IC50: 735 nM
Butyrylcholinesterase
  IC50: 830 nM

## CN1CC[C@@]2(C)c3cc(OC(=O)Nc4ccccc4Cl)ccc3N(C)[C@@H]12
Acetylcholinesterase
  IC50: 264 nM
Butyrylcholinesterase
  IC50: 88.7 nM
[1]
  Ratio IC50: 3

## CN1CC[C@@]2(C)c3cc(OC(=O)NC4CCCCC4)ccc3N(C)[C@@H]12
Acetylcholinesterase
  IC50: 8.5 nM
Butyrylcholinesterase
  IC50: 1400 nM
[2]
  Ratio IC50: 174
